Patent US9493486B2, “Diazaspirocycloalkane and azaspirocycloalkane” (Hoffmann-La Roche Inc., priority 2012, dated 2016)

Molecular target: ATX (human His-tagged) (Homo sapiens (Human), UniProt Q13822)
Assay: Human ATX enzyme inhibition assay (fluorescence quenching, MR121 substrate)
Assay type: biochemical
Settings: 30 nM ATX, 1 μM MR121 substrate, 30° C.
From the text: Human ATX Enzyme Inhibition Assay
Assay working solutions were made as follows:

In the case of `CS(=O)(=O)c1cc(COC(=O)N2CCC3(CC2)CN(C(=O)c2ccc4[nH]c(=O)oc4c2)C3)cc(C(F)(F)F)c1` [Example 12.26, 3-(methylsulfonyl)-5-(trifluoromethyl)benzyl 2-(2-oxo-2,3-dihydrobenzo[d]oxazole-6-carbonyl)-2,7-diazaspiro[3.5]nonane-7-carboxylate], the IC50 is reported as 53 nM.
Work on `O=C(C#Cc1ccc(Cl)cc1)N1CCC2(CC1)CN(C(=O)c1ccc3[nH]nnc3c1)C2` [Example 6.9, 1-(2-(1H-benzo[d][1,2,3]triazole-5-carbonyl)-2,7-diazaspiro[3.5]nonan-7-yl)-3-(4-chlorophenyl)prop-2-yn-1-one] yielded an IC50 of 128 nM.
Compound `O=C(OCc1ccccc1)N1CCC2(CC1)CN(C(=O)c1ccc3[nH]nnc3c1)C2` [Example 1.01, benzyl 2-(1H-benzo[d][1,2,3]triazole-5-carbonyl)-2,7-diazaspiro[3.5]nonane-7-carboxylate] has an IC50 of 2400 nM.
`O=C(CCCc1ccccc1)N1CC2(CC(NS(=O)(=O)c3ccc4[nH]c(=O)oc4c3)C2)C1` [Example 3.1, 2-oxo-2,3-dihydro-benzooxazole-6-sulfonic acid [2-(4-phenyl-butyryl)-2-aza-spiro[3.3]hept-6-yl]-amide] gave an IC50 of 3560 nM.
Work on `O=C(OCc1cc(Cl)cc(Cl)c1)N1CC2(CCN(C(=O)c3ccc4[nH]c(=O)oc4c3)CC2)C1` [Example 2.2, 7-(2-oxo-2,3-dihydro-benzooxazole-6-carbonyl)-2,7-diaza-spiro[3.5]nonane-2-carboxylic acid 3,5-dichloro-benzyl ester] yielded an IC50 of 13.7 nM.
`O=C(c1ccc2[nH]nnc2c1)N1CC2(CCN(C(=O)[C@@H]3C[C@H]3c3cc(F)cc(F)c3)CC2)C1` (relative stereo) [Example 6.5, (2-(1H-benzo[d][1,2,3]triazole-5-carbonyl)-2,7-diazaspiro[3.5]nonan-7-yl)(trans-2-(3,5-difluorophenyl)cyclopropyl)methanone] was tested, and the IC50 was 3220 nM.
Work on `O=C(OCc1cc(Cl)cc(Cl)c1)N1CCC2(C1)CN(C(=O)c1ccc3[nH]c(=O)oc3c1)C2` [Example 2, 3,5-Dichlorobenzyl 2-(2-oxo-2,3-dihydro-benzo[d]oxazole-6-carbonyl)-2,6-diazaspiro[3.4]octane-6-carboxylate] yielded an IC50 of 26 nM.
Compound `O=C(OCc1cc(F)cc(OC(F)(F)F)c1)N1CCCC2(CCN(C(=O)c3ccc4[nH]nnc4c3)C2)C1` (centres unmarked) [Example 12.30, 3-fluoro-5-(trifluoromethoxy)benzyl 2-(1H-benzo[d][1,2,3]triazole-5-carbonyl)-2,7-diazaspiro[4.5]decane-7-carboxylate] has an IC50 of 1600 nM.
Compound `CS(=O)(=O)c1cc(Cl)cc(COC(=O)N2CCC3(CC2)CN(S(=O)(=O)c2ccc4[nH]c(=O)sc4c2)C3)c1` [Example 3.6, 3-chloro-5-(methylsulfonyl)benzyl 2-(2-oxo-2,3-dihydrobenzo[d]thiazol-6-ylsulfonyl)-2,7-diazaspiro[3.5]nonane-7-carboxylate] has an IC50 of 67 nM.
In the case of `O=C(OCc1cc(Cl)cc(Cl)c1)N1CCC2(CC1)CN(Cc1ccc3[nH]c(=O)oc3c1)C2` [Example 4, 3,5-Dichlorobenzyl 2-((2-oxo-2,3-dihydro-benzo[d]oxazol-6-yl)methyl)-2,7-diaza-spiro[3.5]nonane-7-carboxylate], the IC50 is reported as 546 nM.
`O=C(OCc1ccc(Cl)cc1)N1CCC2(CC1)CN(C(=O)c1ccc3[nH]nnc3c1)C2` [Example 1.02, 4-chlorobenzyl 2-(1H-benzo[d][1,2,3]triazole-5-carbonyl)-2,7-diazaspiro[3.5]nonane-7-carboxylate] was tested, and the IC50 was 129 nM.
`O=C(OCc1cncc(Br)c1)N1CCC2(CC1)CN(C(=O)c1ccc3[nH]nnc3c1)C2` [Example 12.09, (5-bromopyridin-3-yl)methyl 2-(1H-benzo[d][1,2,3]triazole-5-carbonyl)-2,7-diazaspiro[3.5]nonane-7-carboxylate] showed an IC50 of 1640 nM.
For `O=C(/C=C/c1cc(Cl)cc(Cl)c1)N1CCC2(CC1)CN(C(=O)c1ccc3[nH]nnc3c1)C2` [Example 6, (E)-1-(2-(1H-benzo[d][1,2,3]triazole-5-carbonyl)-2,7-diazaspiro[3.5]nonan-7-yl)-3-(3,5-dichlorophenyl)prop-2-en-1-one], the IC50 was 26 nM.
With `O=C(OCc1cc(Cl)cc(Cl)n1)N1CCC2(CC1)CN(C(=O)c1ccc3[nH]nnc3c1)C2` [Example 12.10, (4,6-dichloropyridin-2-yl)methyl 2-(1H-benzo[d][1,2,3]triazole-5-carbonyl)-2,7-diazaspiro[3.5]nonane-7-carboxylate] the IC50 was 291 nM.
Work on `O=C(OCc1ccc(OC(F)(F)F)cc1)N1CC2(CCN(C(=O)C3CCc4[nH]nnc4C3)CC2)C1` (centres unmarked) [Example 12.34, 4-(trifluoromethoxy)benzyl 7-(4,5,6,7-tetrahydro-1H-benzo[d][1,2,3]triazole-5-carbonyl)-2,7-diazaspiro[3.5]nonane-2-carboxylate] yielded an IC50 of 10 nM.
With `O=C(OCc1cc(Cl)cc(Cl)c1)N1CC2(CC(NS(=O)(=O)c3ccc4[nH]c(=O)oc4c3)C2)C1` [Example 3.4, 3,5-dichlorobenzyl 6-(2-oxo-2,3-dihydrobenzo[d]oxazole-6-sulfonamido)-2-azaspiro[3.3]heptane-2-carboxylate] the IC50 was 19.5 nM.
`O=C(OCc1ccc(OC(F)(F)F)cc1F)N1CC2(CCN(C(=O)C3CCc4[nH]nnc4C3)CC2)C1` (centres unmarked) [Example 12.41, 2-fluoro-4-(trifluoromethoxy)benzyl 7-(4,5,6,7-tetrahydro-1H-benzo[d][1,2,3]triazole-5-carbonyl)-2,7-diazaspiro[3.5]nonane-2-carboxylate] was tested, and the IC50 was 2 nM.
`N#Cc1cc(Cl)cc(COC(=O)N2CC3(CC(NC(=O)c4ccc5[nH]nnc5c4)C3)C2)c1` [Example 12.20, 6-[(1H-benzotriazole-5-carbonyl)-amino]-2-aza-spiro[3.3]heptane-2-carboxylic acid 3-chloro-5-cyano-benzyl ester] gave an IC50 of 5640 nM.
Work on `CC(OC(=O)N1CCC2(CC1)CN(C(=O)c1ccc3[nH]nnc3c1)C2)c1cc(Cl)cc(Cl)c1` (centres unmarked) [Example 12.07, 1-(3,5-dichlorophenyl)ethyl 2-(1H-benzo[d][1,2,3]triazole-5-carbonyl)-2,7-diazaspiro[3.5]nonane-7-carboxylate] yielded an IC50 of 378 nM.
`O=C(OCc1cc(Cl)cc(Cl)c1)N1CCC2(C1)CN(C(=O)c1ccc3[nH]nnc3c1)C2` [Example 1.14, 3,5-dichlorobenzyl 2-(1H-benzo[d][1,2,3]triazole-5-carbonyl)-2,6-diazaspiro[3.4]octane-6-carboxylate] gave an IC50 of 73.7 nM.
With `CS(=O)(=O)c1cc(Cl)cc(COC(=O)N2CCC3(CC2)CN(C(=O)c2ccc4[nH]c(=O)oc4c2)C3)c1` [Example 2.1, 3-chloro-5-(methylsulfonyl)benzyl 2-(2-oxo-2,3-dihydrobenzo[d]oxazole-6-carbonyl)-2,7-diazaspiro[3.5]nonane-7-carboxylate] the IC50 was 38 nM.
`O=C(OCc1csc(Br)c1)N1CCC2(CC1)CN(C(=O)c1ccc3[nH]nnc3c1)C2` [Example 12.14, (5-bromothiophen-3-yl)methyl 2-(1H-benzo[d][1,2,3]triazole-5-carbonyl)-2,7-diazaspiro[3.5]nonane-7-carboxylate] gave an IC50 of 270 nM.
Work on `O=C(CCc1cc(Cl)cc(Cl)c1)N1CCC2(CC1)CN(C(=O)c1ccc3[nH]nnc3c1)C2` [Example 1.04, 1-(2-(1H-benzo[d][1,2,3]triazole-5-carbonyl)-2,7-diazaspiro[3.5]nonan-7-yl)-3-(3,5-dichlorophenyl)propan-1-one] yielded an IC50 of 115 nM.
In the case of `O=C(OCc1ccc(Cl)nc1)N1CCC2(CC1)CN(C(=O)c1ccc3[nH]nnc3c1)C2` [Example 12.05, (6-chloropyridin-3-yl)methyl 2-(1H-benzo[d][1,2,3]triazole-5-carbonyl)-2,7-diazaspiro[3.5]nonane-7-carboxylate], the IC50 is reported as 4980 nM.
Work on `CS(=O)(=O)c1cc(COC(=O)N2CCC3(CC2)CN(C(=O)c2ccc4[nH]nnc4c2)C3)ccc1Cl` [Example 12.06, 4-chloro-3-(methylsulfonyl)benzyl 2-(1H-benzo[d][1,2,3]triazole-5-carbonyl)-2,7-diazaspiro[3.5]nonane-7-carboxylate] yielded an IC50 of 7240 nM.
`O=C(OCc1ccc(OC(F)(F)F)cc1)N1CCC2(CC1)CN(C(=O)N1CCc3[nH]nnc3C1)C2` [Example 13, 4-(Trifluoromethoxy)benzyl 2-(4,5,6,7-tetrahydro-1H-[1,2,3]triazolo[4,5-c]pyridine-5-carbonyl)-2,7-diazaspiro[3.5]nonane-7-carboxylate] was tested, and the IC50 was 3 nM.
For `NS(=O)(=O)c1ccc(C(=O)N2CC3(CCN(C(=O)OCc4ccc(OC(F)(F)F)cc4F)CC3)C2)cc1` [Example 1.23, 2-fluoro-4-(trifluoromethoxy)benzyl 2-(4-sulfamoylbenzoyl)-2,7-diazaspiro[3.5]nonane-7-carboxylate], the IC50 was 1 nM.
For `O=C(OCc1ccccc1)N1CC2(CC(NS(=O)(=O)c3ccc4[nH]c(=O)oc4c3)C2)C1` [Example 3.2, benzyl 6-(2-oxo-2,3-dihydrobenzo[d]oxazole-6-sulfonamido)-2-azaspiro[3.3]heptane-2-carboxylate], the IC50 was 298 nM.
`O=C(OCc1ccccc1)N1CCC2(CC1)CC(Nc1ccc3[nH]c(=O)oc3c1)C2` [Example 11, Benzyl 2-(2-oxo-2,3-dihydrobenzo[d]oxazol-6-ylamino)-7-azaspiro[3.5]nonane-7-carboxylate] showed an IC50 of 1290 nM.
`O=C(OCc1ccc(Cl)c(F)c1)N1CCC2(CC1)CN(C(=O)c1ccc3[nH]nnc3c1)C2` [Example 12, 4-Chloro-3-fluorobenzyl 2-(1H-benzo[d][1,2,3]triazole-5-carbonyl)-2,7-diazaspiro[3.5]nonane-7-carboxylate] gave an IC50 of 130 nM.
Work on `CS(=O)(=O)c1ccc(COC(=O)N2CCC3(CC2)CN(C(=O)c2ccc4[nH]nnc4c2)C3)c(Cl)c1` [Example 12.28, 2-chloro-4-(methylsulfonyl)benzyl 2-(1H-benzo[d][1,2,3]triazole-5-carbonyl)-2,7-diazaspiro[3.5]nonane-7-carboxylate] yielded an IC50 of 138 nM.
Compound `O=C(OCc1cc(Cl)nc(Cl)c1)N1CCC2(CC1)CN(C(=O)c1ccc3[nH]nnc3c1)C2` [Example 12.01, (2,6-dichloropyridin-4-yl)methyl 2-(1H-benzo[d][1,2,3]triazole-5-carbonyl)-2,7-diazaspiro[3.5]nonane-7-carboxylate] has an IC50 of 150 nM.
